Test results published in US10961215B2, “N-aryl and N-heteroaryl piperidine derivatives as liver X receptor beta agonists, compositions, and their use” (Merck Sharp & Dohme Corp., priority 2016, dated 2021).

Experiments:
[1] = target: T1, GST tagged LXRalpha LBD (ligand binding domain) (Homo sapiens, UniProt Q13133); experiment: LanthaScreen TR-FRET Liver X Receptor Coactivator Assay, LXR alpha-LBD (co-activator recruitment; IP and % Emax relative to T0901317); type: biochemical; settings: for LXR alpha IP (nM) / EC50: Inflection Point of co-activator recruitment, LXR alpha-LBD, TR-FRET; for Emax: read-out: LXR alpha actiivty at max dose (%)
T1 construct: purchased Invitrogen pv4655
T1 sequence (Q13133 209-447 limits assumed): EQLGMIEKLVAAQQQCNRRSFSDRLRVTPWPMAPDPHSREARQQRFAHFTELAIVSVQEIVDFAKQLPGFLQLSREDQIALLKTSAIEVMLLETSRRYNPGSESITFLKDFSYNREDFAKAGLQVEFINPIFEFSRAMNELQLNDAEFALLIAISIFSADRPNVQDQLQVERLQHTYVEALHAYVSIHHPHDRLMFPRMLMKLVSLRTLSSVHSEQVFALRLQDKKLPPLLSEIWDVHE
In short: (§1)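 Readout is time-resolved FRET between a terbium anti-GST antibody bound to the tagged LBD and a fluorescein-labelled coactivator peptide recruited on ligand binding. Samples are incubated at room temperature before reading, and efficacy is expressed against T0901317.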

[2] = target: T2, GST tagged LXRbeta LBD (ligand binding domain) (Homo sapiens, UniProt P55055); experiment: LanthaScreen TR-FRET Liver X Receptor Coactivator Assay, LXR beta-LBD (co-activator recruitment; IP and % Emax relative to T0901317); type: biochemical; settings: for EC50: Inflection Point of co-activator recruitment, LXR beta-LBD, TR-FRET; for Emax: efficacy at max dose in relation to reference T0901317, LXR beta-LBD, read-out: LXR beta actiivty at max dose (%)
T2 construct: purchased Invitrogen pv4658.pps
T2 sequence (P55055 222-460 limits assumed): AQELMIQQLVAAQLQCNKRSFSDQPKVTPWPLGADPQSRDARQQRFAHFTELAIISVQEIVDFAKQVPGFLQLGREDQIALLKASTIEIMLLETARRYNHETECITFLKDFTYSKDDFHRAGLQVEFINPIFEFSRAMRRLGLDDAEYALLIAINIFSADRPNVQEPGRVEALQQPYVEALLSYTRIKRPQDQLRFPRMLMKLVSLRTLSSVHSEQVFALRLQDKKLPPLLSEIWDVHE
In short: as §1

[3] = efficacy at max dose in relation to reference T0901317, LXR alpha-LBD

| LXR alpha IP (nM) [1] | Emax [1, 3] | EC50 [2] | Emax [2] | LXR alpha actiivty at max dose (%) [1, 3] | EC50 [1] | SMILES |
| --- | --- | --- | --- | --- | --- | --- |
| No IP | 0% | 16 nM | 37% |  |  | COc1cccc([C@@](O)(C(=O)N(C)CCCC2(C)CCN(c3ccc(C(=O)N(C)C)c(Cl)n3)CC2)C(F)(F)F)c1 [Example 9-1, (R)-2-chloro-N,N-dimethyl-6-(4-methyl-4-(3-(3,3,3-trifluoro-2-hydroxy-2-(3-methoxyphenyl)-N-methylpropanamido)propyl)piperidin-1-yl)nicotinamide] |
| No IP | 14% | 270 nM | 85% |  |  | CN(C)C(=O)c1ccc(N2CCC(CC3CC(NC(=O)[C@](O)(c4ccccc4)C(F)(F)F)C3)CC2)cc1Cl (stereo partly drawn) [Example 11-4, (R)-2-chloro-N,N-dimethyl-4-(4-((3-(3,3,3-trifluoro-2-hydroxy-2-phenylpropanamido)cyclobutyl)methyl)piperidin-1-yl)benzamide] |
| No IP | 1% | 237 nM | 47% |  |  | CN(C)C(=O)c1ccc(N2CCC(CCCN(C)C(=O)[C@@](N)(c3ccccc3)C(F)(F)F)CC2)nc1Cl [Example 1-30, (S)-6-(4-(3-(2-amino-3,3,3-trifluoro-N-methyl-2-phenylpropanamido)propyl)piperidin-1-yl)-2-chloro-N,N-dimethylnicotinamide] |
| No IP | 0% | 1350 nM | 65% |  |  | COc1cccc([C@@](O)(C(=O)Nc2ccc(C3CCN(c4ccc(C(=O)N(C)C)c(Cl)n4)CC3)cc2)C(F)(F)F)c1 [Example 10-1, (R)-2-chloro-N,N-dimethyl-6-(4-(4-(3,3,3-trifluoro-2-hydroxy-2-(3-methoxyphenyl)propanamido)phenyl)piperidin-1-yl)nicotinamide] |
| No IP | 0% | 649 nM | 49% |  |  | COc1cccc([C@@](O)(C(=O)Nc2cccc(C3CCN(c4ccc(C(=O)N(C)C)c(Cl)n4)CC3)c2)C(F)(F)F)c1 [Example 10-4, (R)-2-chloro-N,N-dimethyl-6-(4-(3-(3,3,3-trifluoro-2-hydroxy-2-(3-methoxyphenyl)propanamido)phenyl)piperidin-1-yl)nicotinamide] |
| No IP | 9% | 187 nM | 54% |  |  | CN(C)C(=O)c1ccc(N2CCC(CCCNC(=O)[C@](O)(c3cc(Cl)cc(Cl)c3)C(F)(F)F)CC2)nc1Cl [Example 5-13, (R)-2-chloro-6-(4-(3-(2-(3,5-dichlorophenyl)-3,3,3-trifluoro-2-hydroxypropanamido)propyl)piperidin-1-yl)-N,N-dimethylnicotinamide] |
| No IP |  | 505 nM | 79% | 0% |  | CN(C)C(=O)c1ccc(N2CCC([C@@H]3C[C@H]3CNC(=O)[C@@](O)(c3ccccc3)C(F)(F)F)CC2)cc1Cl [Example 15-17, 2-chloro-N,N-dimethyl-4-(4-((1S,2R)-2-(((S)-3,3,3-trifluoro-2-hydroxy-2-phenylpropanamido)methyl)cyclopropyl)piperidin-1-yl)benzamide] |
| No IP | 7% | 2070 nM | 32% |  |  | COc1cccc([C@@](O)(C(=O)N(C)CC[C@@H]2CC23CCN(c2ccc(C(=O)NC(C)C)c(Cl)c2)CC3)C(F)(F)F)c1 [Example 7-23, 2-chloro-N-isopropyl-4-((S)-1-(2-((R)-3,3,3-trifluoro-2-hydroxy-2-(3-methoxyphenyl)-N-methylpropanamido)ethyl)-6-azaspiro[2.5]octan-6-yl)benzamide] |
| No IP | 11% | 5040 nM | 46% |  |  | CN(C)C(=O)c1ccc(N2CCC(CCCN(C)C(=O)C(O)C(F)(F)F)CC2)nc1Cl (stereo not drawn) [Example 1-52, 2-chloro-N,N-dimethyl-6-(4-(3-(3,3,3-trifluoro-2-hydroxy-N-methylpropanamido)propyl)piperidin-1-yl)nicotinamide] |
| No IP | 7% | 688 nM | 44% |  |  | COc1cccc([C@@](O)(C(=O)N(C)CCCC2CCN(c3ccc(C(=O)NC4CC4)c(Cl)n3)CC2)C(F)(F)F)c1 [Example 2-2, (R)-2-chloro-N-cyclopropyl-6-(4-(3-(3,3,3-trifluoro-2-hydroxy-2-(3-methoxyphenyl)-N-methylpropanamido)propyl)piperidin-1-yl)nicotinamide] |
|  | 18% | 156 nM | 78% |  | 1920 nM | CN(C)C(=O)c1ccc(N2CCC(CCCN(C)C(=O)[C@@]3(c4ccccc4)CCCO3)CC2)nc1Cl [Example 1-38, (S)-2-chloro-N,N-dimethyl-6-(4-(3-(N-methyl-2-phenyltetrahydrofuran-2-carboxamido)propyl)piperidin-1-yl)nicotinamide] |
| No IP | 0% | 134 nM | 43% |  |  | COc1cccc([C@@](O)(C(=O)N(C)CCCC2CCN(c3ccc(C(=O)N4C(C)CCC4C)c(Cl)n3)CC2)C(F)(F)F)c1 (stereo partly drawn) [Example 2-10, (2R)-N-(3-(1-(6-chloro-5-(2,5-dimethylpyrrolidine-1-carbonyl)pyridin-2-yl)piperidin-4-yl)propyl)-3,3,3-trifluoro-2-hydroxy-2-(3-methoxyphenyl)-N-methylpropanamide] |
| No IP | 0% | 67 nM | 39% |  |  | CCc1cccc([C@@](O)(C(=O)N(C)CCCC2CCN(c3ccc(C(=O)N(C)C)c(Cl)n3)CC2)C(F)(F)F)c1 [Example 1-28, (R)-2-chloro-6-(4-(3-(2-(3-ethylphenyl)-3,3,3-trifluoro-2-hydroxy-N-methylpropanamido)propyl)piperidin-1-yl)-N,N-dimethylnicotinamide] |
| No IP | 7% | 961 nM | 38% |  |  | COc1cccc([C@@](O)(C(=O)NC[C@@H](F)CC2CCN(c3ccc(C(=O)N(C)C)c(Cl)n3)CC2)C(F)(F)F)c1 [Example 3-6] |
| No IP | 0% | 35 nM | 44% |  |  | CN(C)C(=O)c1ccc(N2CCC(CCCN(C)C(=O)[C@](O)(c3cc(Cl)cc(Cl)c3)C(F)(F)F)CC2)nc1Cl [Example 1-37, (R)-2-chloro-6-(4-(3-(2-(3,5-dichlorophenyl)-3,3,3-trifluoro-2-hydroxy-N-methylpropanamido)propyl)piperidin-1-yl)-N,N-dimethylnicotinamide] |
|  | 25% | 10 nM | 64% |  | 289 nM | CN(C)C(=O)c1ccc(N2CCC([C@H]3C[C@H]3CN(C)C(=O)[C@](O)(c3ccccc3)C(F)(F)F)CC2)nc1Cl [Example 15-2, 2-chloro-N,N-dimethyl-6-(4-((1R,2R)-2-(((R)-3,3,3-trifluroo-2-hydroxy-N-methyl-2-phenylpropanamido)methyl)cyclopropyl)piperidin-1-yl)nicotinamide] |
| No IP | 6% | 373 nM | 49% |  |  | COc1cccc([C@@](O)(C(=O)N(C)CC(F)CC2CCN(c3ccc(C(=O)N(C)C)c(Cl)n3)CC2)C(F)(F)F)c1 (stereo partly drawn) [Example 3-3, 2-chloro-6-(4-(2-fluoro-3-((R)-3,3,3-trifluoro-2-hydroxy-2-(3-methoxyphenyl)-N-methylpropanamido)propyl)piperidin-1-yl)-N,N-dimethylnicotinamide] |

| SMILES | LXR alpha IP (nM) [1] | Emax [1, 3] | EC50 [2] | Emax [2] | LXR alpha actiivty at max dose (%) [1, 3] | EC50 [1] |
| --- | --- | --- | --- | --- | --- | --- |
| CN(C)C(=O)c1ccc(N2CCC(CCCN(C)C(=O)[C@@](O)(c3ccccc3)C3CC3)CC2)nc1Cl [Example 1-25, (S)-2-chloro-6-(4-(3-(2-cyclopropyl-2-hydroxy-N-methyl-2-phenylacetamido)propyl)piperidin-1-yl)-N,N-dimethylnicotinamide] |  | 26% | 110 nM | 71% |  | 3360 nM |
